Where “and” joins values, the source holds several entries; their conditions need not be identical. Equal values may be shown once.
Columns and labels:
Type in all cases: cell-based
[1] = system: Panc1 (pancreatic carcinoma) cells; experiment: MTT cytotoxicity assay, Panc1; settings: Homo sapiens, PANC-1, 48 h treatment
Description: (§1) The cell lines PANC-1 (pancreatic carcinoma), MCF7 (breast carcinoma), HepG2 (hepatocellular carcinoma), and WI-38 (normal lung fibroblast cells) were obtained from the American Type Culture Collection (ATCC) located in Manassas, Virginia, United States. These cell lines were cultured in DMEM (Invitrogen, Life Technologies, Rockville, MD, USA) medium supplemented with 10% FBS (Fetal Bovine Serum, Hyclone, Thermo Fisher Scientific, Waltham, MA, USA) and 1% penicillin (Sigma-Aldrich, Louis, MO, USA). The cells were maintained at 37°C in a 5% CO2 and 95% humidity environment for a maximum period of two weeks to ensure their viability for further experimentation. Cell detachment was achieved using a solution containing 0.25% (w/v) trypsin (Sigma-Aldrich, Louis, MO, USA) and 0.53 mM EDTA ((Sigma-Aldrich, Louis, MO, USA), followed by re-cultivation in fresh media.
The cultivated cells were seeded in 96-well plates at a concentration of 1 × 10^4 cells/100 μL per well (Naik et al. [2014]). The cultured plates were then incubated for 24 hours at 37°C. […] The tested concentrations of the compounds (1, 10, 30, and 100 µg/mL) in 0.01 - 0.1% DMSO in ddH2O were prepared by diluting the stock solutions with double-distilled water (ddH2O). […] A negative control using 0.1% DMSO in ddH2O was also included. The treated cells were further incubated for 48 hours at 37 °C. The media of the treated and control plates were removed and replaced by fresh media containing MTT (Sigma, Louis, MO, USA) reagent in a concentration of 1 mg/mL (Ponnusamy et al. [2016]), then incubated for 2 hours. The viability of the cancer cells was determined by measuring the amount of formazan formed by viable cells. […] The intensity of the produced colour was measured using an ELISA plate reader (Bio-Tek EL 800, Agilent technology, Santa Clara, CA, USA) at wavelength of 570 nm. The percent of cells viability was calculated by the following equation: %viability=AA570oftreated-AA570ofblank/AA570ofcontrol-AA570ofblank×100
(§2) AA Average of triplicate absorbances for each sample concentration

[2] = system: Bax gene expression in Panc1 cells; experiment: SYBR Green RT-PCR gene expression, Bax; settings: 48 h, (Z)-3-hexenyl-β-D-glucopyranoside at 10 µM, control 1.436
Description: (§3) The effects of 10 µM of (Z)-3-hexenyl-β-D-glucopyranoside on the mRNA expression of caspase3, bax, and Bcl-2 genes were investigated using the reverse transcription-polymerase […] technique. After a 48-hour incubation of (Z)-3-hexenyl-β-D-glucopyranoside in Panc1 (pancreatic carcinoma) cells, mRNA isolation of the selected proteins was performed using the RN easy extraction kit (Qiagen, Hilden, Germany), following previously described methods (Janicke et al. [1998]). For real-time quantitative PCR of the RNA templates, a one-step RT-PCR kit with SYBR® Green (Bio-Rad SYBR Green PCR MMX, Hercules, California, USA) was added to a 25 μL 2X SYBR® Green RT-PCR reaction mix (Bio-Rad, Hercules, California, USA). The reaction mix contained 2X reaction buffer with 0.4 mM of each dNTP, magnesium chloride, iTaq DNA polymerase, 20 nM fluorescein SYBR® Green I dye, stabilizers, 11 μL nuclease-free water, 1.5 μL reverse primer (10 μM), 1.5 μL forward primer (10 μM), 1 μL iScript reverse transcriptase, and RNA template (1 pg to 100 ng total RNA). The cDNA synthesis and PCR amplifications were performed in the same tube using Rotor-Gene RT-PCR (Qiagen, Hilden, Germany) software 1.7 (Abed et al. [2021]). The primers used in the RT-PCR reaction were obtained from Corbett Life Science Division (Reg. No. QEC21313), Corbett Research, Mortlake, Australia. […]

[3] = system: Casp3 gene expression in Panc1 cells; experiment: SYBR Green RT-PCR gene expression, caspase3; settings: 48 h, (Z)-3-hexenyl-β-D-glucopyranoside at 10 µM, control 1
Description: as §3

[4] = MTT cytotoxicity assay, WI-38 normal cells; settings: human, WI-38 normal lung fibroblast cells, 48 h treatment, read-out: Cytotoxicity IC50 WI38
Description: as §1, with “Cell detachment was achieved using a solution containing 0.25% (w/v) trypsin (Sigma-Aldrich, Louis, MO, USA) and 0.53 mM EDTA ((Sigma-Aldrich, Louis, MO, USA), followed by re-cultivation in fresh media.” left out
(§4) The cultivated cells were seeded in 96-well plates at a concentration of 1 × 10^4 cells/100 μL per well (Naik et al. [2014]). […] The viability of the cancer cells was determined by measuring the amount of formazan formed by viable cells. […] The intensity of the produced colour was measured using an ELISA plate reader (Bio-Tek EL 800, Agilent technology, Santa Clara, CA, USA) at wavelength of 570 nm. The percent of cells viability was calculated by the following equation: %viability=AA570oftreated-AA570ofblank/AA570ofcontrol-AA570ofblank×100
as §2

[5] = system: WI-38 (normal lung fibroblast cells); experiment: MTT cytotoxicity assay, WI-38 normal cells; settings: 48 h treatment, read-out: Cytotoxicity IC50 WI38
Description: as §1, with “Cell detachment was achieved using a solution containing 0.25% (w/v) trypsin (Sigma-Aldrich, Louis, MO, USA) and 0.53 mM EDTA ((Sigma-Aldrich, Louis, MO, USA), followed by re-cultivation in fresh media.” left out
as §4, §2

[6] = system: Bcl-2 gene expression in Panc1 cells; experiment: SYBR Green RT-PCR gene expression, Bcl-2; settings: 48 h, (Z)-3-hexenyl-β-D-glucopyranoside at 10 µM, control 1
Description: as §3

[7] = system: HepG2 (hepatocellular carcinoma) cells; experiment: MTT cytotoxicity assay, HepG2; settings: Homo sapiens, 48 h treatment
Description: as §1, with “Cell detachment was achieved using a solution containing 0.25% (w/v) trypsin (Sigma-Aldrich, Louis, MO, USA) and 0.53 mM EDTA ((Sigma-Aldrich, Louis, MO, USA), followed by re-cultivation in fresh media.” left out
as §4, §2

[8] = system: MCF7 (breast carcinoma) cells; experiment: MTT cytotoxicity assay, MCF7; settings: Homo sapiens, 48 h treatment
Description: as §1, with “Cell detachment was achieved using a solution containing 0.25% (w/v) trypsin (Sigma-Aldrich, Louis, MO, USA) and 0.53 mM EDTA ((Sigma-Aldrich, Louis, MO, USA), followed by re-cultivation in fresh media.” left out
as §4, §2

[9] = system: Panc1 cells; experiment: Flow cytometry analysis of cell DNA contents / cell cycle (propidium iodide); settings: 10 µM
Description: All reagents and kits for this assay were obtained from Abcam (Abcam Technology, Boston, MA, USA). The detection of DNA cell contents and cell cycle status was conducted following the established method (Xu et al. [2001]). To provide a brief overview, Panc1 pancreatic cancer cells (ATCC, Manassas, Virginia, USA) were cultured in a single-cell suspension in DMEM medium (Invitrogen, Life Technologies, Rockville, MD, USA). Subsequently, the cells were fixed in 66% ethanol (Sigma-Aldrich, Louis, MO, USA) and kept on ice for 2 hours. Afterward, the cancer cells were washed with a PBS (Sigma-Aldrich, Louis, MO, USA) solution (5 mL of 10X PBS + 45 mL water), re-cultured in fresh medium, and incubated at 37 °C for 24 hours. A concentration of 10 µM of (Z)-3-hexenyl-β-D-glucopyranoside was added in triplicate, chosen based on previously reported data (Ponnusamy et al. [2016]; Xu et al. [2001]) for 24h. The second dose of 10 µM of (Z)-3-hexenyl-β-D-glucopyranoside was added to the Panc1 cells then incubated for 24 h. Following a 48-hour incubation period from the first dose, the cells were trypsinized, fixed, and stained with propidium iodide-RNase enzyme reagent (9.45 mL PBS + 500 μL 20X propidium iodide + 50 μL 200X RNase) from Abcam Technology, Boston, MA, USA. […] The incubation time for fluorescence quantification was 30 minutes. The experiment was repeated twice.

[10] = system: Panc1 cells; experiment: Annexin V-FITC cellular apoptotic assay; settings: 10 µM, 48 h
Description: The reagents used in this assay included the Annexin V-FITC kit (Abcam Technology, Boston, MA, USA), 1X binding buffer (Abcam Technology, Boston, MA, USA), and propidium iodide (Bio Vision Research Products, Mountain View, CA, USA). Panc1 cells were seeded in 6-well plates and incubated at 37 °C for 24 hours. Compound 1 ((Z)-3-hexenyl-β-D-glucopyranoside) was then added to the cultivated Panc1 6-well plates at a concentration of 10 µM and incubated for 48 hours. Subsequently, the cancer cells were trypsinized and centrifuged for 10 minutes at 300 rpm. The resulting precipitate was resuspended in 500 µL of 1X binding buffer. Annexin V-FITC (5 µL) and propidium iodide (5 µL) reagents were added to the treated cancer cell plates and incubated for 5 minutes in the dark at room temperature. A flow cytometer (Novocyte, Agilent technology, Santa Clara, CA, USA) with an excitation maximum of 488 nm and an emission maximum of 530 nm was employed to measure the intensity of annexin-binding phosphatidylserine (PS) and consequently determine the amount of apoptotic cells (Koopman et al. [1994]).

SMILES | IC50 [1] [µM] | RT-PCR results fold change Bax [2] [fold] | RT-PCR results fold change Casp3 [3] [fold] | IC50 at 48 h [4] [µM] | IC50 [5] [µM] | RT-PCR results fold change Bcl-2 [6] [fold] | IC50 [7] [µM] | IC50 [8] [µM] | Cell cycle effect (Comment) [9] | DNA content %G2/M ([9]; control 10.47) [%] | DNA content %S ([9]; control 32.11) [%] | DNA content %G0-G1 ([9]; control 57.42) [%] | Cell cycle effect (Comment) ([9]; listed as E-W-4) | Necrosis [10] [%] | Apoptosis Late ([10]; control 0.28%) [%] | Apoptosis Early ([10]; control 0.47%) [%] | Apoptosis Total ([10]; control 1.86%)
CCC=CCCOC1OC(CO)C(O)C(O)C1O [Compound 1, (Z)-3-hexenyl-β-D-glucopyranoside] | 7.6 | 3.173 | 4.064 | 194 | 195 | 0.231 | 45.8 | 109 | cell growth arrest at the S phase | 3.38 | 44.01 | 52.61 | Cell growth arrest@ S phase | 5.52 | 9.85 | 26.15 | 42% and 41.52%
Oc1cccc(O)c1O [Pyrogallol] | 198 |  |  |  |  |  |  |  |  |  |  |  |  |  |  |  | 
O=C(O)c1cc(O)c(O)c(O)c1 [Gallic acid] | 21.8 |  |  |  |  |  |  |  |  |  |  |  |  |  |  |  | 
